# Data reported in patent publication US20240190890A1, “MK2 INHIBITORS AND USES THEREOF” (Bristol-Myers Squibb Company, priority 2022, published 2024).
# Biological target: p38a activated, mitogen-activated protein kinase-activated protein kinase 2 (MAPKAP-K2 or MK2) enzyme (Homo sapiens (Human), UniProt P49137)
# Assay: MK2 Omnia continuous-read kinase assay for compound potency
# Assay type: biochemical
# Conditions: [MK-2]=0.4 nM, [ATP]=10 μM, [ST3-Sox]=10 μM; room temperature
# Method in brief: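 p38a-activated MK2 (0.4 nM) with 10 μM ATP (apparent Km) and 10 μM S/T3-Sox peptide in Tris pH 7.5 buffer with MgCl2, EGTA and DTT. Fluorescence (ex360/em485) read continuously for 120 min at room temperature. IC50 from initial linear slopes; apparent kinact/KI from kobs of exponential progress-curve fits.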
# Chain of p38a activated, mitogen-activated protein kinase-activated protein kinase 2 (MAPKAP-K2 or MK2) enzyme (P49137 whole entry): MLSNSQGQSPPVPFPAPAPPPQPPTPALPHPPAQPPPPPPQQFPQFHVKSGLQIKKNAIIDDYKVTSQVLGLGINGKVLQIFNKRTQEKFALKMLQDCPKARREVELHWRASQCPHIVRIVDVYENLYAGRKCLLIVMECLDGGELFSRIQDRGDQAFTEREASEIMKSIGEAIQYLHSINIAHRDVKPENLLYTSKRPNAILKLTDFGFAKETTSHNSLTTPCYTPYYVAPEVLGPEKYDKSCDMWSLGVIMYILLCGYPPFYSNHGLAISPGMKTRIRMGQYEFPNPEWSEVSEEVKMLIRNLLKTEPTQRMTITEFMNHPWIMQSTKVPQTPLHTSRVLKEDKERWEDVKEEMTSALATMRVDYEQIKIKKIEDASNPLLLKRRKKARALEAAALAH
row,SMILES,IC50 [nM]
1,"C[C@@H]1CNc2c(sc3ccc4nc(-c5cc(C#CC(C)(C)N)nc(Cl)n5)ccc4c23)C(=O)N1 [Example I-63, (R)-3-(6-(3-amino-3-methylbut-1-yn-1-yl)-2-chloropyrimidin-4-yl)-10-methyl-9,10,11,12-tetrahydro-8H-[1,4]diazepino[5′,6′:4,5]thieno[3,2-f]quinolin-8-one]",145
2,"C=Cc1cc(-c2ccc3c(ccc4sc5c(c43)NC[C@@H](C)NC5=O)n2)cc(N2CCC(F)CC2)n1 [Example I-239, (R)-3-(2-(4-fluoropiperidin-1-yl)-6-vinylpyridin-4-yl)-10-methyl-9,10,11,12-tetrahydro-8H-[1,4]diazepino[5′,6′:4,5]thieno[3,2-f]quinolin-8-one]",161
3,"C=Cc1cc(-c2ccc3c(ccc4sc5c(c43)NC[C@@H](C)NC5=O)n2)c(OCCN2CCOCC2)nn1 [Example I-133, (R)-10-methyl-3-(3-(2-morpholinoethoxy)-6-vinylpyridazin-4-yl)-9,10,11,12-tetrahydro-8H-[1,4]diazepino[5′,6′:4,5]thieno[3,2-f]quinolin-8-one]",255
4,"C/C=C\c1ncc(COCC)c(-c2ccc3c(ccc4sc5c(c43)NC[C@@H](C)NC5=O)n2)n1 [Example I-49, (R,Z)-3-(5-(ethoxymethyl)-2-(prop-1-en-1-yl)pyrimidin-4-yl)-10-methyl-9,10,11,12-tetrahydro-8H-[1,4]diazepino[5′,6′:4,5]thieno[3,2-f]quinolin-8-one]",474
5,"C=Cc1nc(C2CC2)n(-c2ccc3c(ccc4sc5c(c43)NC[C@@H](C)NC5=O)n2)n1 [Example I-248, (R)-3-(5-cyclopropyl-3-vinyl-1H-1,2,4-triazol-1-yl)-10-methyl-9,10,11,12-tetrahydro-8H-[1,4]diazepino[5′,6′:4,5]thieno[3,2-f]quinolin-8-one]",303
6,"C=Cc1ncc(F)c(-c2ccc3c(ccc4sc5c(c43)NC[C@@H](C)NC5=O)n2)n1 [Example I-2, (R)-3-(5-fluoro-2-vinylpyrimidin-4-yl)-10-methyl-9,10,11,12-tetrahydro-8H-[1,4]diazepino[5′,6′:4,5]thieno[3,2-f]quinolin-8-one]",133
7,"C=Cc1cc(-c2ccc3c(ccc4sc5c(c43)NC[C@@H](C)NC5=O)n2)cc(N2CCCCC2)n1 [Example I-177, (R)-10-methyl-3-(2-(piperidin-1-yl)-6-vinylpyridin-4-yl)-9,10,11,12-tetrahydro-8H-[1,4]diazepino[5′,6′:4,5]thieno[3,2-f]quinolin-8-one]",140
8,"C[C@@H]1CNc2c(sc3ccc4nc(-c5cc(Cl)nc(Cl)c5)ccc4c23)C(=O)N1 [Example I-68, (R)-3-(2,6-dichloropyridin-4-yl)-10-methyl-9,10,11,12-tetrahydro-8H-[1,4]diazepino[5′,6′:4,5]thieno[3,2-f]quinolin-8-one]",472
9,"C#Cc1nc(C#CC(C)(C)N)cc(-c2ccc3c(ccc4sc5c(c43)NC[C@@H](C)NC5=O)n2)n1 [Example I-65, (R)-3-(6-(3-amino-3-methylbut-1-yn-1-yl)-2-ethynylpyrimidin-4-yl)-10-methyl-9,10,11,12-tetrahydro-8H-[1,4]diazepino[5′,6′:4,5]thieno[3,2-f]quinolin-8-one]",132
10,"[2H]C([2H])([2H])N1CCN(c2cc(-c3ccc4c(ccc5sc6c(c54)NC[C@@H](C)NC6=O)n3)cc(C#C)n2)CC1 [Example I-172, (R)-3-(2-ethynyl-6-(4-(methyl-d3)piperazin-1-yl)pyridin-4-yl)-10-methyl-9,10,11,12-tetrahydro-8H-[1,4]diazepino[5′,6′:4,5]thieno[3,2-f]quinolin-8-one]",97
11,"C=Cc1cc(-c2ccc3c(ccc4sc5c(c43)NC[C@@H](C)NC5=O)n2)c(CN2C[C@@H](C)O[C@@H](C)C2)cn1 [Example I-213, (R)-3-(5-(((2S,6R)-2,6-dimethylmorpholino)methyl)-2-vinylpyridin-4-yl)-10-methyl-9,10,11,12-tetrahydro-8H-[1,4]diazepino[5′,6′:4,5]thieno[3,2-f]quinolin-8-one]",103
12,"C=Cc1cc(-c2ccc3c(ccc4sc5c(c43)NC[C@@H](C)NC5=O)n2)cc(N2CC(F)(F)C2)n1 [Example I-184, (R)-3-(2-(3,3-difluoroazetidin-1-yl)-6-vinylpyridin-4-yl)-10-methyl-9,10,11,12-tetrahydro-8H-[1,4]diazepino[5′,6′:4,5]thieno[3,2-f]quinolin-8-one]",175
13,"C=Cc1cc(C(F)(F)F)n(-c2ccc3c(ccc4sc5c(c43)NC[C@@H](C)NC5=O)n2)n1 [Example I-257, (R)-10-methyl-3-(5-(trifluoromethyl)-3-vinyl-1H-pyrazol-1-yl)-9,10,11,12-tetrahydro-8H-[1,4]diazepino[5′,6′:4,5]thieno[3,2-f]quinolin-8-one]",1000
14,"C#Cc1cccc(-c2ccc3c(ccc4sc5c(c43)NC[C@@H](C)NC5=O)n2)n1 [Example I-56, (R)-3-(6-ethynylpyridin-2-yl)-10-methyl-9,10,11,12-tetrahydro-8H-[1,4]diazepino[5′,6′:4,5]thieno[3,2-f]quinolin-8-one]",194
15,"C[C@@H]1CNc2c(sc3ccc4nc(-n5cc(Cl)cn5)ccc4c23)C(=O)N1 [Example I-152, (R)-3-(4-chloro-1H-pyrazol-1-yl)-10-methyl-9,10,11,12-tetrahydro-8H-[1,4]diazepino[5′,6′:4,5]thieno[3,2-f]quinolin-8-one]",86
16,"C[C@@H]1CNc2c(sc3ccc4nc(-c5cccc(Cl)n5)ccc4c23)C(=O)N1 [Example I-52, (R)-3-(6-chloropyridin-2-yl)-10-methyl-9,10,11,12-tetrahydro-8H-[1,4]diazepino[5′,6′:4,5]thieno[3,2-f]quinolin-8-one]",116

# Now those with a lower IC50, led by results:
row,IC50 [nM],SMILES
1,39,"C#Cc1cc(-c2ccc3c(ccc4sc5c(c43)NC[C@@H](C)NC5=O)n2)cc(CN2CCOCC2)n1 [Example I-169, (R)-3-(2-ethynyl-6-(morpholinomethyl)pyridin-4-yl)-10-methyl-9,10,11,12-tetrahydro-8H-[1,4]diazepino[5′,6′:4,5]thieno[3,2-f]quinolin-8-one]"
2,25,"C#Cc1cc(-c2ccc3c(ccc4sc5c(c43)NC[C@@H](C)NC5=O)n2)cc(CN2C[C@@H](C)O[C@H](C)C2)n1 [Example I-188, (R)-3-(2-(((2R,6R)-2,6-dimethylmorpholino)methyl)-6-ethynylpyridin-4-yl)-10-methyl-9,10,11,12-tetrahydro-8H-[1,4]diazepino[5′,6′:4,5]thieno[3,2-f]quinolin-8-one]"
3,49,"C#Cc1cc(-c2ccc3c(ccc4sc5c(c43)NC[C@@H](C)NC5=O)n2)c(CN2CCOCC2)cn1 [Example I-154, (R)-3-(2-ethynyl-5-(morpholinomethyl)pyridin-4-yl)-10-methyl-9,10,11,12-tetrahydro-8H-[1,4]diazepino[5′,6′:4,5]thieno[3,2-f]quinolin-8-one]"
4,3,"C#Cc1cc(-c2ccc3c(ccc4sc5c(c43)NC[C@@H](C)NC5=O)n2)nc(N2CCN(C)CC2)n1 [Example I-59, (R)-3-(6-ethynyl-2-(4-methylpiperazin-1-yl)pyrimidin-4-yl)-10-methyl-9,10,11,12-tetrahydro-8H-[1,4]diazepino[5′,6′:4,5]thieno[3,2-f]quinolin-8-one]"
5,27,"C=Cc1cc(N2CCN(C)CC2)nc(-c2ccc3c(ccc4sc5c(c43)NC[C@@H](C)NC5=O)n2)n1 [Example I-62, (R)-10-methyl-3-(4-(4-methylpiperazin-1-yl)-6-vinylpyrimidin-2-yl)-9,10,11,12-tetrahydro-8H-[1,4]diazepino[5′,6′:4,5]thieno[3,2-f]quinolin-8-one]"
6,15,"C[C@@H]1CNc2c(sc3ccc4nc(-c5ccnc(C#CC(C)(C)N)c5)ccc4c23)C(=O)N1 [Example I-135, (R)-3-(2-(3-amino-3-methylbut-1-yn-1-yl)pyridin-4-yl)-10-methyl-9,10,11,12-tetrahydro-8H-[1,4]diazepino[5′,6′:4,5]thieno[3,2-f]quinolin-8-one]"
7,23,"C=Cc1cc(-c2ccc3c(ccc4sc5c(c43)NC[C@@H](C)NC5=O)n2)c(CN2CCOCC2)cn1 [Example I-153, (R)-10-methyl-3-(5-(morpholinomethyl)-2-vinylpyridin-4-yl)-9,10,11,12-tetrahydro-8H-[1,4]diazepino[5′,6′:4,5]thieno[3,2-f]quinolin-8-one]"
8,35,"C=Cc1cc(-c2ccc3c(ccc4sc5c(c43)NC[C@@H](C)NC5=O)n2)cc(N2CCN(CC)CC2)n1 [Example I-173, (R)-3-(2-(4-ethylpiperazin-1-yl)-6-vinylpyridin-4-yl)-10-methyl-9,10,11,12-tetrahydro-8H-[1,4]diazepino[5′,6′:4,5]thieno[3,2-f]quinolin-8-one]"
9,40,"C/C=C/c1cc(-c2ccc3c(ccc4sc5c(c43)NC[C@@H](C)NC5=O)n2)nc(COCC)n1 [Example I-35, (R,E)-3-(2-(ethoxymethyl)-6-(prop-1-en-1-yl)pyrimidin-4-yl)-10-methyl-9,10,11,12-tetrahydro-8H-[1,4]diazepino[5′,6′:4,5]thieno[3,2-f]quinolin-8-one]"
10,38,"C#Cc1cc(-c2ccc3c(ccc4sc5c(c43)NC[C@@H](C)NC5=O)n2)nc(C#CC(C)(C)N)n1 [Example I-67, (R)-3-(2-(3-amino-3-methylbut-1-yn-1-yl)-6-ethynylpyrimidin-4-yl)-10-methyl-9,10,11,12-tetrahydro-8H-[1,4]diazepino[5′,6′:4,5]thieno[3,2-f]quinolin-8-one]"
11,4,"C=Cc1cc(-c2ccc3c(ccc4sc5c(c43)NC[C@@H](C)NC5=O)n2)c(C(F)F)cn1 [Example I-130, (R)-3-(5-(difluoromethyl)-2-vinylpyridin-4-yl)-10-methyl-9,10,11,12-tetrahydro-8H-[1,4]diazepino[5′,6′:4,5]thieno[3,2-f]quinolin-8-one]"
